Test results from patent US12527789B2, “Inhibition of a tripartite VOR protein complex in multicellular organisms” (TECHNISCHE UNIVERSITÄT DRESDEN, priority 2018, dated 2026).

Test system: nuclear pores and importin β1
Experiment: NEI-associated late endosomes and transfer of EV-derived components into the nucleoplasm after importazole treatment
Type: cell-based
Excerpt: Referring to FIGS. 1A, 1B and 1C, illustrated are schematic illustrations of data showing the localization and the tripartite structure of a VOR complex. […] Typically, EVs are transported to late endosomes after their endocytosis, wherein the EVs facilitate intercellular communication in diverse cellular processes.

## CC(Nc1nc(N2CCCC2)nc2ccccc12)c1ccccc1 (centres unmarked) [importazole]
  transfer of EV-derived components into the nucleoplasm of host cells: inhibition of transfer of EV-derived components into the nucleoplasm of host cells
Host cells after importazole treatment
  presence of nuclear envelope invagination (NEI)-associated late endosomes: lack of the nuclear envelope invagination (NEI)-associated late endosomes
